Target: human PCSK9 (Homo sapiens, UniProt Q8NBP7)
Assay: PCSK9 ligand binding TR-FRET assay (interference with binding of human PCSK9 to human LDLR)
Settings: for Max % inhibition: PCSK9 FRET assay, efficacy (Amax), 100% = 1 uM unlabeled human PCSK9, 0% = DMSO; for IC50: TR-FRET, human PCSK9 Alexa Fluor 647 / human LDLR extracellular domain-Europium Kryptate, read-out: PCSK9 FRET Assay IC50
Outline: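 Threefold compound dilutions were pre-incubated 30 min with PCSK9, after which 4 nM Europium Kryptate-tagged human LDLR ectodomain was added for a further 2 h.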

human PCSK9, sequence (Q8NBP7 153-692): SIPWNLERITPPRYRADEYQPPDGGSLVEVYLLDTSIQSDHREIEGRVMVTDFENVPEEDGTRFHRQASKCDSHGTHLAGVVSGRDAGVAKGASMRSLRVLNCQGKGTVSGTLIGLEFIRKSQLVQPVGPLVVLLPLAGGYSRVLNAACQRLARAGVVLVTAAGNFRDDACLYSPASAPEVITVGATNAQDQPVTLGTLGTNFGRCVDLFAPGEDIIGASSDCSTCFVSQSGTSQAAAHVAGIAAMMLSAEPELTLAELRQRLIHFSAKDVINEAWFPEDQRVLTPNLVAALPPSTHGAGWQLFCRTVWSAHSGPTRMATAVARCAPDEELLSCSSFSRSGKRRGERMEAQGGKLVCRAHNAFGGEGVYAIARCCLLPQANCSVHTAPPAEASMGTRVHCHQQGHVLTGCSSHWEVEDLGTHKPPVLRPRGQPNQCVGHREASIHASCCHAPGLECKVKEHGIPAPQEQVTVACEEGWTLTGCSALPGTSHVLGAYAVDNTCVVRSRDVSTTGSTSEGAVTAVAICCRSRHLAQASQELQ
human PCSK9, sequence (Q8NBP7 31-152 partner limits assumed): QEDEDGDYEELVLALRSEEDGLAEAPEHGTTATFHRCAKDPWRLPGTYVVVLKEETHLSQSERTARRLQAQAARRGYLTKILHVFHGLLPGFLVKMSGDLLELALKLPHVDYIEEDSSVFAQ

SMILES | Max % inhibition [%] | IC50 [nM]
COC[C@@H]1NC(=O)[C@H](C)N(Cc2c(Oc3ccc(-c4cnc(CN(C)C)n4C)cc3)cccc2OC(F)F)C(=O)C[C@@H](C)C(=O)N(C)[C@@H](C)CNC(=O)C[C@H](Cc2ccc(Cl)cc2)N(C)C1=O [Compound 62, (5S,8S,13S,16R)-8-(4-chlorobenzyl)-1-(2-(difluoromethoxy)-6-(4-(2-((dimethylamino)methyl)-1-methyl-1H-imidazol-5-yl)phenoxy)benzyl)-5-(methoxymethyl)-2,7,13,14,16-pentamethyl-1,4,7,11,14-pentaazacyclooctadecane-3,6,10,15,18-pentaone] | 88.46 | 16.8
COC[C@@H]1NC(=O)[C@H](C)N(Cc2ccc(Cl)cc2Oc2ccc(-c3cnc(CN4CCCC4)n3C)cc2)C(=O)C[C@@H](Cc2ccn(C(F)F)n2)C(=O)N(C)[C@@H](C)CNC(=O)C[C@H](Cc2ccc(Cl)cc2)N(C)C1=O [Compound 63, (2S,5S,8S,13S)-1-(4-chloro-2-(4-(1-methyl-2-(pyrrolidin-1-ylmethyl)-1H-imidazol-5-yl)phenoxy)benzyl)-8-(4-chlorobenzyl)-16-((1-(difluoromethyl)-1H-pyrazol-3-yl)methyl)-5-(methoxymethyl)-2,7,13,14-tetramethyl-1,4,7,11,14-pentaazacyclooctadecane-3,6,10,15,18-pentaone] | 103.93 | 87.3
COC[C@@H]1NC(=O)[C@H](C)N(Cc2ccc(Cl)cc2Oc2ccc(-c3cnc(CN(C)C)n3C)cc2)C(=O)C[C@@H](Cc2ccccc2)C(=O)N(C)CC(C)(C)NC(=O)C[C@H](Cc2ccc(Cl)cc2)N(C)C1=O [Compound 65, (2S,5S,8S,16R)-16-benzyl-1-(4-chloro-2-(4-(2-((dimethylamino)methyl)-1-methyl-1H-imidazol-5-yl)phenoxy)benzyl)-8-(4-chlorobenzyl)-5-(methoxymethyl)-2,7,12,12,14-pentamethyl-1,4,7,11,14-pentaazacyclooctadecane-3,6,10,15,18-pentaone] | 92.63 | 189
C[C@H]1CNC(=O)C[C@H](Cc2ccc(Cl)cc2)N(C)C(=O)[C@H](CO)NC(=O)[C@H](C)N(Cc2ccccc2Oc2ccc(-c3cnc(CN(C)C)n3C)cc2)C(=O)CCC(=O)N1C [Compound 66, (2S,5S,8S,13S)-8-(4-chlorobenzyl)-1-(2-(4-(2-((dimethylamino)methyl)-1-methyl-1H-imidazol-5-yl)phenoxy)benzyl)-5-(hydroxymethyl)-2,7,13,14-tetramethyl-1,4,7,11,14-pentaazacyclooctadecane-3,6,10,15,18-pentaone] | 91.88 | 77.2
CCOc1ncc(-c2ccc(Oc3cc(Cl)ccc3CN3C(=O)C[C@@H](Cc4ccccc4)C(=O)N(C)[C@@H](C)CNC(=O)C[C@H](Cc4ccc(Cl)cc4)N(C)C(=O)[C@H](COC)NC(=O)[C@@H]3C)cc2)n1C [Compound 68, (2S,5S,8S,13S,16R)-16-benzyl-1-(4-chloro-2-(4-(2-ethoxy-1-methyl-1H-imidazol-5-yl)phenoxy)benzyl)-8-(4-chlorobenzyl)-5-(methoxymethyl)-2,7,13,14-tetramethyl-1,4,7,11,14-pentaazacyclooctadecane-3,6,10,15,18-pentaone] | 77.84 | 30.5
CC[C@H]1C(=O)N[C@@H](COC)C(=O)N(C)[C@@H](Cc2ccc(Cl)cc2)CC(=O)NC[C@H](C)N(C)C(=O)[C@H](Cc2ccccc2)CC(=O)N1Cc1ccc(Cl)cc1Oc1ccc(-c2cnc(CN(C)C)n2C)cc1 [Compound 70, (2S,5S,8S,13S,16R)-16-benzyl-1-(4-chloro-2-(4-(2-((dimethylamino)methyl)-1-methyl-1H-imidazol-5-yl)phenoxy)benzyl)-8-(4-chlorobenzyl)-2-ethyl-5-(methoxymethyl)-7,13,14-trimethyl-1,4,7,11,14-pentaazacyclooctadecane-3,6,10,15,18-pentaone] | 101.10 | 0.9
COC[C@@H]1NC(=O)[C@H](C)N(Cc2ccc(Cl)cc2Oc2ccc(-c3cnc(CN(C)C)n3C)cc2)C(=O)C[C@@H](Cc2ccccc2)C(=O)N(C)[C@@H](C(=O)OC)CNC(=O)C[C@H](Cc2ccc(Cl)cc2)N(C)C1=O [Compound 71, (2S,5S,8S,13R,16R)-methyl 16-benzyl-1-(4-chloro-2-(4-(2-((dimethylamino)methyl)-1-methyl-1H-imidazol-5-yl)phenoxy)benzyl)-8-(4-chlorobenzyl)-5-(methoxymethyl)-2,7,14-trimethyl-3,6,10,15,18-pentaoxo-1,4,7,11,14-pentaazacyclooctadecane-13-carboxylate] | 102.12 | 12.9

The remaining lines, values ahead:

Max % inhibition [%] | IC50 [nM] | SMILES
101.80 | 2.6 | COC[C@@H]1NC(=O)[C@H](C)N(Cc2ccc(Cl)cc2Oc2ccc(-c3cnc(CN(C)C)n3C)cc2)C(=O)C[C@@H](Cc2cccc(C(F)F)c2)C(=O)N(C)[C@@H](C)CNC(=O)C[C@H](Cc2ccc(Cl)cc2)N(C)C1=O [Compound 56, (2S,5S,8S,13S,16R)-1-(4-chloro-2-(4-(2-((dimethylamino)methyl)-1-methyl-1H-imidazol-5-yl)phenoxy)benzyl)-8-(4-chlorobenzyl)-16-(3-(difluoromethyl)benzyl)-5-(methoxymethyl)-2,7,13,14-tetramethyl-1,4,7,11,14-pentaazacyclooctadecane-3,6,10,15,18-pentaone]
95.83 | 2.1 | COC[C@@H]1NC(=O)[C@H](C)N(Cc2ccc(Cl)cc2Oc2ccc(-c3cnc(CN(C)C)n3C)cc2)C(=O)C[C@@H](Cc2ccc(C(F)F)cc2)C(=O)N(C)[C@@H](C)CNC(=O)C[C@H](Cc2ccc(Cl)cc2)N(C)C1=O [Compound 57, (2S,5S,8S,13S,16R)-1-(4-chloro-2-(4-(2-((dimethylamino)methyl)-1-methyl-1H-imidazol-5-yl)phenoxy)benzyl)-8-(4-chlorobenzyl)-16-(4-(difluoromethyl)benzyl)-5-(methoxymethyl)-2,7,13,14-tetramethyl-1,4,7,11,14-pentaazacyclooctadecane-3,6,10,15,18-pentaone]
82.23 | 2.9 | COC[C@@H]1NC(=O)[C@H](C)N(Cc2ccc(Cl)cc2Oc2ccc(-c3cnc(CN4CC[C@@H](F)C4)n3C)cc2)C(=O)C[C@@H](Cc2ccccc2)C(=O)N(C)[C@@H](C)CNC(=O)C[C@H](Cc2ccc(Cl)cc2)N(C)C1=O [Compound 60, (2S,5S,8S,13S,16R)-16-benzyl-1-(4-chloro-2-(4-(2-(((R)-3-fluoropyrrolidin-1-yl)methyl)-1-methyl-1H-imidazol-5-yl)phenoxy)benzyl)-8-(4-chlorobenzyl)-5-(methoxymethyl)-2,7,13,14-tetramethyl-1,4,7,11,14-pentaazacyclooctadecane-3,6,10,15,18-pentaone]
99.31 | 1.4 | COC[C@@H]1NC(=O)[C@H](C)N(Cc2ccc(Cl)cc2Oc2ccc(-c3cnc(CN(C)C)n3C)cc2)C(=O)C[C@@H](Cc2ccccc2)C(=O)N(C)C2CCOCC2NC(=O)CC(Cc2ccc(Cl)cc2)N(C)C1=O (stereo partly drawn) [Compound 61, (4S,7S,10S,14R)-14-benzyl-11-(4-chloro-2-(4-(2-((dimethylamino)methyl)-1-methyl-1H-imidazol-5-yl)phenoxy)benzyl)-4-(4-chlorobenzyl)-7-(methoxymethyl)-5,10,16-trimethyltetradecahydro-1H-pyrano[3,4-1][1,4,7,11,14]pentaazacyclooctadecine-2,6,9,12,15(3H)-pentaone]
79.08 | 9 | COC[C@@H]1NC(=O)[C@H](C)N(Cc2ccc(Cl)cc2Oc2ccc(-c3cnc(CN(C)C)n3C)cc2)C(=O)C[C@@H](C)C(=O)N(C)[C@H]2CCCC[C@@H]2NC(=O)C[C@H](Cc2ccc(Cl)cc2)N(C)C1=O [Compound 64, (4S,7S,10S,14R,16aS,20aS)-11-(4-chloro-2-(4-(2-((dimethylamino)methyl)-1-methyl-1H-imidazol-5-yl)phenoxy)benzyl)-4-(4-chlorobenzyl)-7-(methoxymethyl)-5,10,14,16-tetramethylhexadecahydrobenzo[l][1,4,7,11,14]pentaazacyclooctadecine-2,6,9,12,15(3H)-pentaone]
96.63 | 0.6 | COC[C@@H]1NC(=O)[C@H](C)N(Cc2ccc(Cl)cc2Oc2ccc(-c3cnc(CN4CCCC4)n3C)cc2)C(=O)C[C@@H](Cc2cccc(F)c2F)C(=O)N(C)[C@@H](C)CNC(=O)C[C@H](Cc2ccc(Cl)cc2)N(C)C1=O [Compound 67, (2S,5S,8S,13S,16R)-1-(4-chloro-2-(4-(1-methyl-2-(pyrrolidin-1-ylmethyl)-1H-imidazol-5-yl)phenoxy)benzyl)-8-(4-chlorobenzyl)-16-(2,3-difluorobenzyl)-5-(methoxymethyl)-2,7,13,14-tetramethyl-1,4,7,11,14-pentaazacyclooctadecane-3,6,10,15,18-pentaone]
64.09 | 43 | COC[C@@H]1NC(=O)[C@H](C)N(Cc2ccc(Cl)cc2Oc2ccc(-c3cnc(OC)nc3)cc2)C(=O)C[C@@H](Cc2ccccc2)C(=O)N(C)[C@@H](C)CNC(=O)C[C@H](Cc2ccc(Cl)cc2)N(C)C1=O [Compound 69, (2S,5S,8S,13S,16R)-16-benzyl-1-(4-chloro-2-(4-(2-methoxypyrimidin-5-yl)phenoxy)benzyl)-8-(4-chlorobenzyl)-5-(methoxymethyl)-2,7,13,14-tetramethyl-1,4,7,11,14-pentaazacyclooctadecane-3,6,10,15,18-pentaone]
92.57 | 0.5 | COC[C@@H]1NC(=O)[C@H](C)N(Cc2ccc(Cl)cc2Oc2ccc(-c3cnc(CN4CCCC4)n3C)c(F)c2)C(=O)C[C@@H](Cc2ccccc2)C(=O)N(C)[C@@H](C)CNC(=O)C[C@H](Cc2ccc(Cl)cc2)N(C)C1=O [Compound 72, (2S,5S,8S,13S,16R)-16-benzyl-1-(4-chloro-2-(3-fluoro-4-(1-methyl-2-(pyrrolidin-1-ylmethyl)-1H-imidazol-5-yl)phenoxy)benzyl)-8-(4-chlorobenzyl)-5-(methoxymethyl)-2,7,13,14-tetramethyl-1,4,7,11,14-pentaazacyclooctadecane-3,6,10,15,18-pentaone]
